Measured values reported in publication PMC6534257, “Leishmania infantum arginase: biochemical characterization and inhibition by naturally occurring phenolic substances” (Journal of Enzyme Inhibition and Medicinal Chemistry, 2019).
≈ marks a conversion by molar mass, not a printed value. Where “and” joins values, the source holds several entries; their conditions need not be identical. Equal values may be shown once. Entries after “also recorded” stand apart in the source; their conditions may differ. Read-outs that look alike come from different tables or passages of the source.

What was measured:
L. amazonensis arginase = settings: cited from earlier work; for IC50: read-out: IC50 against L. amazonensis arginase; for effect on L. amazonensis arginase (in words): phenolics without catechol group ref 15; for inhibition of L. amazonensis arginase activity: final concentration of 20 μM ref 13
[1] = system: L. infantum promastigotes; experiment: Inhibition of L. infantum promastigotes growth (resazurin); type: cell-based, Leishmania infantum; settings: for IC50: Leishmania infantum, read-out: Promastigotes IC50±SE; for IC50 / Promastigotes IC50±SE: 96 h, 26 °C, resazurin; for SI PRO (selectivity index CC50/IC50, promastigotes): CC50 RAW 264.7 / IC50 promastigotes
Description: The parasite growth inhibition assays were performed on 96-well microplates, where the selected ARGLi inhibitors were previously diluted (1–200 μg/mL). Subsequently, promastigote forms of L. infantum collected in late logarithmic phase (96 h) were added to microplates at the final concentration of 10^6 parasites/mL. Microplates were incubated at 26 °C for 96 h. After the incubation period, parasites viability was determined using 0.005% resazurin[30]. The 50% inhibitory concentration (IC50) was determined from the dose-response curves generated from the data.

[2] = Cytotoxicity in RAW 264.7 macrophages (MTT); type: cell-based; settings: mouse, read-out: RAW 264.7 CC50±SE
Description: RAW 264.7 macrophages were cultured in polystyrene culture flasks containing DMEM medium supplemented with 10% FBS at 37 °C and 5% CO2 atmosphere. For cytotoxic evaluation, 48 h cultured cells were harvested, washed with culture medium, and distributed into 96-well culture plates at 10^5 cells/well concentration. The cells were allowed to adhere for 2 h prior to the addition of increasing inhibitor concentrations (31–1000 µg/mL). Treated cell cultures were incubated for 48 h under the same experimental conditions. After this period, cell viability was determined by colorimetric assay using MTT solution (5 mg/mL) as an indicator. The 50% cytotoxic concentration (CC50) was calculated by analysing the dose-response curves generated from the data.

[3] = system: Leishmania infantum arginase (ARGLi); experiment: ARGLi inhibition by phenolic substances (urea production); type: biochemical; settings: 100 µM substance, 50 mM L-arginine, pH 9.5, 37 °C, 5 min
[4] = system: axenic amastigote forms of L. donovani; set-up: method as in PMID 16569852; settings: cited from earlier work
ARGLi = settings: read-out: Km for L-arginine; 1 to 50 mM L-arginine, pH 9.5, 37 °C
Description: ARGLi (0.2 µg/mL) was incubated with L-arginine at concentrations ranging from 1 to 50 mM in 50 mM CHES buffer (pH 9.5) at 37 °C for 5 min. Vmax and Km values were determined by the analysis of the initial velocity versus substrate concentration curve using the Michaelis–Menten equation in Graph Prism 6.

[5] = system: BALB/c mice peritoneal macrophages; settings: cited from earlier work
[6] = system: L. infantum-infected RAW 264.7 macrophages; experiment: Nitric oxide production by infected macrophages (Griess reaction); type: cell-based; settings: for increase in nitrite levels in comparison to the control: 48 h; for effect on NO production by infected macrophages (in words): 48 h treatment
Description: (§1) The intracellular anti-amastigote activity was performed according to previously described procedures[31] with some modifications. Initially, RAW 264.7 macrophages were distributed in 96-well plates and, after adherence (incubation for 2 h), cells were washed twice with phosphate buffer saline (PBS, pH 7.2). Then, the adherent cells were infected with promastigote forms of L. infantum at the stationary phase of growth in a proportion of 10 parasites/macrophage. After 4 h of interaction at 37 °C and 5% CO2 atmosphere, free parasites were washed away with PBS and infected macrophages were incubated for another 24 h to allow differentiation into amastigotes. After this time, infected cells were treated for 48 h with increasing concentrations of the selected inhibitor. Subsequently, the culture supernatant was collected for evaluation of nitric oxide production using the Griess reaction. Cells were washed with PBS, then Schneider’s medium supplemented with 5% FBS was added and the plate was incubated at 26 °C for 72 h. The parasite survival was estimated by viability of differentiated promastigote forms recovered from the cultures using MTT (5 mg/mL). The results were expressed as the percentage of viability in relation to that obtained for the control (100%). The IC50 for amastigote forms was calculated from the dose-response curves generated from the data.
In order to determine if ARGLi inhibitors were capable of modulating the host cell response, RAW 264.7 macrophages were infected with promastigote forms of L. infantum and treated with different concentrations of inhibitors for 48 h. After treatment, NO production was measured. […] This increase is similar to that observed for the reference drug Fungizone® (Figure 5(B)). The effect of caffeic acid on NO production may be a result of macrophage arginase inhibition and consequent oxidation of accumulated L-arginine by inducible NO synthase (iNOS).
Figure 5. Nitric oxide production by L. infantum-infected RAW 264.7 macrophages treated with different concentrations of ARGLi inhibitors. (A) Treatment with 3.1–200 μg/mL of rosmarinic acid (black), caffeic acid (light gray), and catechin (dark gray). (B) Treatment with 0.062–0.5 μg/mL of the reference drug fungizone. Control (white) represents the production of nitric oxide by infected and untreated macrophages. Nitrite concentration was measured by the Griess reaction and data represent mean ± SE of two independent experiments.

L. amazonensis = settings: cited from earlier work; for reduction of lesion size and parasite burden (in words): compared with reference drug Glucantime ref 42; for mice death or loss of body weight (in words): treated BALB/c mice ref 42
[7] = system: intracellular amastigotes of L. amazonensis; set-up: method as in PMID 24906989; settings: cited from earlier work
[8] = system: L. infantum intracellular amastigotes; experiment: Intracellular anti-amastigote activity in infected RAW 264.7 macrophages; type: cell-based, Leishmania infantum; settings: for SI AMA (selectivity index CC50/IC50, intracellular amastigotes): CC50 RAW 264.7 / IC50 intracellular amastigotes; for IC50: Leishmania infantum, RAW264.7, 48 h, infected RAW 264.7, 48 h treatment, read-out: Intracellular amastigotes IC50±SE
Description: as §1

bovine hepatic arginase = system: bovine hepatic arginase; set-up: method as in PMID 27776374; settings: cited from earlier work; for percentage of inhibition of bovine hepatic arginase: 100 μM ref 37
[9] = system: L. amazonensis promastigotes; settings: cited from earlier work

O=c1c(O)c(-c2ccc(O)c(O)c2)oc2cc(O)ccc12 [fisetin]
IC50 (L. amazonensis arginase): 1.4 ± 0.3 µM

O=c1cc(-c2ccc(O)c(O)c2)oc2cc(O)c([C@@H]3O[C@H](CO)[C@@H](O)[C@H](O)[C@H]3O)c(O)c12 [isoorientin]
IC50 (L. amazonensis arginase): 9 ± 1 µM

COc1ccc(/C=C/c2cc(O)cc(O[C@@H]3O[C@H](CO)[C@@H](O)[C@H](O)[C@H]3O)c2)cc1O [Rhaponticin, rhaponticin]
IC50 [1]: > 400 µg/mL and > 1 mM
antileishmanial activity against promastigotes (in words) ([1]; highest concentration tested): did not inhibit promastigote growth at the highest concentration tested
CC50 at 48 h ([2]; RAW 264.7 macrophages): 825 µg/mL and 1.96 mM
percentage of inhibition of ARGLi activity [3]: more than 50%

O=c1c(O)c(-c2ccccc2)oc2cc(O)cc(O)c12 [galangin]
IC50 (L. amazonensis arginase): 100 µM

COc1cc(O)c2c(=O)c(O)c(-c3ccc(O)c(O)c3)oc2c1 [Rhamnetin, rhamnetin]
IC50 axenic amastigote forms of L. donovani [4]: 4.6 µg/mL
Promastigotes IC50±SE [1]: 263.2 ± 3.87 µg/mL
IC50 [1]: 259 µg/mL and 832 µM
CC50 at 48 h ([2]; RAW 264.7 macrophages): > 1000 µg/mL and > 3 mM
percentage of inhibition of ARGLi activity [3]: ~56%
percentage of inhibition of ARGLi activity ([3]; listed as rhamnetin): more than 50%

O=c1c(O)c(-c2ccc(O)cc2)oc2cc(O)cc(O)c12 [kaempferol, reference compound]
IC50 against L. donovani [4]: 2.9 µg/mL (≈ 10.1 µM)
IC50 (L. amazonensis arginase): 50 µM

O=c1cc(-c2ccc(O)cc2)oc2cc(O)c([C@@H]3O[C@H](CO)[C@@H](O)[C@H](O)[C@H]3O)c(O)c12 [isovitexin]
effect on L. amazonensis arginase (in words) (L. amazonensis arginase): little effect

O=c1cc(-c2ccc(O)c(O)c2)oc2cc(O)cc(O)c12 [luteolin]
IC50 (L. amazonensis arginase): 9 ± 1 µM

N=C(N)NCCC[C@H](N)C(=O)O [L-arginine]
Km (ARGLi): 5.1 ± 1.1 mM

COc1cc(-c2oc3cc(O)cc(O)c3c(=O)c2O)ccc1O [Isorhamnetin, isorhamnetin]
IC50 axenic amastigote forms of L. donovani [4]: 3.8 µg/mL
Promastigotes IC50±SE [1]: 258.7 ± 9.50 µg/mL
IC50 [1]: 263 µg/mL and 818 µM
CC50 at 48 h [2]: > 1000 µg/mL and > 3 mM

O=c1cc(-c2ccc(O)cc2)oc2c([C@@H]3O[C@H](CO)[C@@H](O)[C@H](O)[C@H]3O)c(O)cc(O)c12 [vitexin]
effect on L. amazonensis arginase (in words) (L. amazonensis arginase): little effect

Oc1cc(O)c2c(c1)O[C@H](c1ccc(O)c(O)c1)[C@H](O)C2 [(−)-epicatechin]
inhibition of L. amazonensis arginase activity (L. amazonensis arginase): more than 50%

O=C(/C=C/c1ccc(O)c(O)c1)O[C@@H]1C[C@](O)(C(=O)O)C[C@@H](O)[C@H]1O [Chlorogenic acid, chlorogenic acid]
inhibition of L. amazonensis arginase activity (L. amazonensis arginase): more than 50%

Oc1cc(O)c2c(c1)O[C@H](c1ccc(O)c(O)c1)[C@@H](O)C2 [(+)-catechin]
inhibition of L. amazonensis arginase activity (L. amazonensis arginase): more than 50%

O=c1cc(-c2ccc(O)cc2)oc2cc(O)cc(O)c12 [apigenin]
effect on L. amazonensis arginase (in words) (L. amazonensis arginase): little effect

O=c1cc(-c2ccc(O)c(O)c2)oc2c([C@@H]3O[C@H](CO)[C@@H](O)[C@H](O)[C@H]3O)c(O)cc(O)c12 [orientin]
IC50 (L. amazonensis arginase): 16 ± 2 µM

O=C(O)/C=C/c1ccc(O)c(O)c1 [Caffeic acid, caffeic acid]
CC50 for BALB/c mice peritoneal macrophages [5]: 32.5 ± 2.0 µg/mL
increase in nitrite levels in comparison to the control ([6]; 100 µg/mL): 234.6%
increase in nitrite levels in comparison to the control ([6]; 200 µg/mL): 311.5%
effect on NO production by infected macrophages (in words) [6]: significantly increased nitric oxide production; also recorded: significantly increased NO production
reduction of lesion size and parasite burden (in words) (L. amazonensis): more effective in reducing lesion size and parasite burden
mice death or loss of body weight (in words) (L. amazonensis): did not lead to mice death or significant loss of body weight
IC50 for intracellular amastigotes of L. amazonensis [7]: 2.9 ± 0.3 µg/mL
SI AMA (selectivity index CC50/IC50, intracellular amastigotes) [8]: 55.69
IC50 [8]: 3.95 µg/mL and 21.9 µM
percentage of inhibition of bovine hepatic arginase (bovine hepatic arginase): 61.3 ± 4.1%
IC50 (bovine hepatic arginase): 86.7 µM
SI PRO (selectivity index CC50/IC50, promastigotes) [1]: 20.05
IC50 [1]: 11 µg/mL and 60.8 µM
CC50 at 48 h ([2]; RAW 264.7 macrophages): 220 µg/mL and 1.22 mM
IC50 against L. amazonensis promastigote forms [9]: 0.9 ± 0.2 µg/mL (≈ 5 µM)

O=c1c(O)c(-c2ccc(O)c(O)c2)oc2cc(O)cc(O)c12 [Quercetin, quercetin, reference compound]
IC50 against L. donovani [4]: 1 µg/mL (≈ 3.31 µM)
IC50 (L. amazonensis arginase): 4.3 µM
percentage of inhibition of bovine hepatic arginase (bovine hepatic arginase): 64.4 ± 2.5%
IC50 (bovine hepatic arginase): 31.2 µM
percentage of inhibition of ARGLi activity [3]: 67.05 ± 10.36%

O=c1c(O[C@@H]2O[C@H](CO)[C@@H](O)[C@H](O)[C@H]2O)c(-c2ccc(O)c(O)c2)oc2cc(O)cc(O)c12 [isoquercitrin]
inhibition of L. amazonensis arginase activity (L. amazonensis arginase): more than 50%

O=C(/C=C/c1ccc(O)c(O)c1)O[C@H](Cc1ccc(O)c(O)c1)C(=O)O [Rosmarinic acid, rosmarinic acid]
CC50 for BALB/c mice peritoneal macrophages [5]: 33.5 ± 1.4 µg/mL
effect on NO production by infected macrophages (in words) [6]: did not affect NO production
reduction of lesion size and parasite burden (in words) (L. amazonensis): more effective in reducing lesion size and parasite burden
mice death or loss of body weight (in words) (L. amazonensis): did not lead to mice death or significant loss of body weight
IC50 for intracellular amastigotes of L. amazonensis [7]: 1.7 ± 0.4 µg/mL
SI AMA (selectivity index CC50/IC50, intracellular amastigotes) [8]: 61.79
IC50 [8]: 2.86 µg/mL and 7.9 µM
SI PRO (selectivity index CC50/IC50, promastigotes) [1]: 8.56
IC50 [1]: 20.6 µg/mL and 57.3 µM
CC50 at 48 h [2]: 177 µg/mL and 491 µM
IC50 against L. amazonensis promastigote forms [9]: 0.2 ± 0.1 µg/mL (≈ 0.555 µM)
